The results in this text go back to US9006218B2, “Nucleoside phosphonate salts” (Chimerix Inc., priority 2010, dated 2015).

Counter-ions that a name gives are not always drawn. Like-named read-outs stand apart in the source and are kept apart here.

For data set [1], the system named is XMRV collected from 22Rv1 prostate cancer cells. As to the kind of experiment: Anti-XMRV cytoprotection assay in PG-4 cells (XTT). Format: cell-based, xenotropic murine retrovirus (XMRV). How it is done:
The test materials were evaluated in PG-4 cells against XMRV collected from the cell-free supernatant of 22Rv1 prostate cancer cells using a complete dose response curve. The experimental details and results are discussed below.
Test materials (CMX157 K^+ salt and Tenofovir) were solubilized at 40 mM and 10 mM in water, respectively, and stored at −20° C. Test materials were evaluated using a 1 μM high test concentration and serially diluted in half-log increments for the in vitro antiviral assay (SOW104-11-01). A second assay was performed (SOW104-11-02) using a 1 μM high test concentration for CMX157, but an increased high test concentration of 100 μM for tenofovir. Ribavirin was purchased from Sigma and used as a positive control compound.
(§1) PG-cells (ATCC# CRL-2032; feline astrocytes) were passaged in T-75 flasks in McCoy's 5A medium supplemented with 10% heat inactivated fetal bovine serum, 2 mmol/L L-glutamine, 100 U/ml penicillin and 100 μg/ml streptomycin prior to use in the antiviral assay. On the day preceding the assay, cells were split 1:2 to assure they were in an exponential growth phase at the time of infection. Total cell and viability quantification were performed using a hemocytometer and Trypan Blue dye exclusion. Cell viability was to be greater than 95% for the cells to be utilized in the assay. The cells were resuspended at 5×10^4 cells per ml (SOW104-11-01) or 1×10^5 cells per mL (SOW104-11-02) in tissue culture medium and added to flat bottom microtiter plates in a volume of 100 μI for overnight incubation at 37° C./5% CO2.
(§2) Serial half-log dilutions were performed. Media was removed from the cell monolayer and 100 μL of 2× concentrations of compound-containing media (DMEM supplemented with 2% FBS, 2 mmol/L L-glutamine, 100 U/ml penicillin and 100 μg/ml streptomycin for SOW104-11-01 or PG-4 cell culture medium for SOW104-11-02) was transferred to the 96-well microtiter plate.
The XMRV virus was collected from the cell-free supernatant of 22Rv1 human prostate cancer cells (ATCC# CRL-2505). A pretitered aliquot of virus was removed from the freezer (−80° C.) and allowed to thaw in a biological safety cabinet. The virus was diluted into 2% FBS assay medium such that the amount of virus added to each well in a volume of 100 μl is the amount determined to yield 85 to 95% cell killing at six days post infection (based on optical density values) for SOW104-11-01. PG-4 cell culture medium was used to dilute virus in a volume of 100 μl is the amount determined to yield 85 to 95% cell killing at six days post infection for SOW104-11-02.
(§3) Inhibition of virus induced cytopathic effects (CPE) was quantified by measuring the reduction of the tetrazolium dye XTT (2,3-bis(2-methoxy-4-nitro-5-sulfophenyl)-5-[(phenylamino)carbonyl]-2H-tetrazoIium hydroxide). XTT in metabolically active cells is metabolized by the mitochondrial enzyme NADPH oxidase to a soluble formazan product. XTT solution was prepared daily as a stock of 1 mg/mL in PBS. Phenazine methosulfate (PMS) solution was prepared at 0.15 mg/mL in PBS and stored in the dark at −20° C. XTT/PMS stock was prepared immediately before use by adding 40 μL of PMS per mL of XTT solution. 50 μL of XTT/PMS was added to each well of the plate and the plate incubated for 4 h at 37° C. The 4 h incubation has been empirically determined to be within the linear response range for XTT dye reduction with the indicated numbers of cells for each assay. Adhesive plate sealers were used in place of the lids, the sealed plate was inverted several times to mix the soluble formazan product and the plate was read at 450 nm (650 nm reference wavelength) with a Molecular Devices SpectraMax Plus 384 96 well plate format spectrophotometer.
Raw data was collected from the Softmax Pro 4.6 software and imported into a Microsoft Excel XLfit4 spreadsheet to analyze (four parameter curve fit analysis) and graph the data. […] The EC50, EC90, TC50 and TC90 are expressed means±standard deviation.
On the technique in general: Formazan colour is commonly taken as a measure of viable cells.

The test system of the next data set is PG-4 cells. The data set is described as follows: Cytotoxicity in PG-4 cells (XTT, TC50). Format: cell-based, feline. As for the experimental part:
as §1, §2, §3
(§4) Raw data was collected from the Softmax Pro 4.6 software and imported into a Microsoft Excel XLfit4 spreadsheet to analyze (four parameter curve fit analysis) and graph the data. Using Microsoft Excel, EC50 and EC90 (50% and 90% inhibition of virus replication), TC50 and TC90 (50% and 90% reduction in cell viability) and a therapeutic index (TI, TC50/EC50 and TC90/EC90) are provided. The EC50, EC90, TC50 and TC90 are expressed means±standard deviation. The significant figure is three digits. Raw data for both antiviral activity and toxicity with a graphic representation of the data are provided in a printout summarizing the individual compound activity.

In a further data set the test system is XMRV. As to the kind of experiment: Anti-XMRV activity assay in LNCaP cells (6 day assay). Format: cell-based. From the text: (§5) Specifically, the anti-XMRV activity assay was completed in LNCaP cells (6 day assay) according to the methods described in PLoS ONE, volume 5 (4), April 2010, e9948, pages 1-7.
The next data set concerns LNCaP cells. The data set is described as follows: Cytotoxicity in LNCaP cells. Format: cell-based. The settings on record: LNCaP cells. How it is done: as §5
(§6) The cytotoxicity of CMX157 in LNCaP cells was also tested.

The nature of data set [2]: Cytotoxicity in LNCaP cells. Format: cell-based. The settings on record: human. As for the experimental part: as §5, §6
The format of data set [3] is physicochemical. The settings on record: general statement, see Example 2. As for the experimental part:
Stability testing was performed for CMX157 and its salts to investigate the quality of the compound over time under various environments. Accelerated conditions were established using an Isotemp Vacuum Oven set at either 40° C. or 60° C. If high humidity was needed, a saturated solution of sodium chloride created an air state containing about 75% humidity.
For determining the amount of CMX157 present in the samples within the stability study, a reference standard of a known purity was used. […] For analysis, 40 mg of samples and standards are dissolved in 100.0 mL diluent (80 H2O: 20 Methanol: 2 NH4OH). Separation of the drug substance and impurities was achieved using a mobile phase gradient (Table 1) on a Shimadzu A20 HPLC with a Phenomenex Synergi Polar RP 4μ 150×3 mm column. By comparing the areas for the samples at wavelength of 259 nm (kmax) to that of the reference standard, the percentage of CMX157 was determined.

Data set [4] is described as follows: Cytotoxicity in PG-4 cells (XTT, TC50). Format: cell-based, feline. The settings on record: cat. As for the experimental part: as §1, §2, §3, §4
Setting [5] is: third determination listed in Table 3, run not given.
Where [6] appears, read: unidentified retrovirus, 22Rv1, in Mus musculus, read-out: PG-4/XMRV EC50, assay SOW104-11-01: 5×10^4 cells per ml, DMEM 2% FBS.
[7] abbreviates: unidentified retrovirus, 22Rv1, in Mus musculus, read-out: PG-4/XMRV EC50, assay SOW104-11-02: 1×10^5 cells per mL, PG-4 cell culture medium.
The mark [8] stands for this setting: unidentified retrovirus, 22Rv1, in Mus musculus, read-out: PG-4/XMRV EC50, third determination listed in Table 3, run not stated.
The mark [9] stands for this setting: LNCaP cells, read-out: Cytotoxicity (IC50) LNCaP cells.

As to `C[C@H](Cn1cnc2c(N)ncnc21)OCP(=O)(O)O` [Tenofovir, (R)-9-(2-phosphonylmethoxypropyl)adenine], the EC50 in data set [1] (assay SOW104-11-01: 5×10^4 cells per ml, DMEM 2% FBS, read-out: PG-4/XMRV EC50) was greater than 1000 nM; in data set [1] (assay SOW104-11-02: 1×10^5 cells per mL, PG-4 cell culture medium, read-out: PG-4/XMRV EC50) it was 2400 nM; in data set [1] (third determination listed in Table 3, run not given, read-out: PG-4/XMRV EC50), 2600 nM; in the data set on XMRV, 4500 ± 3800 nM. The “Therapeutic Index (TC50/EC50)” value in data set [1] (assay SOW104-11-02) was greater than 41.5; in data set [1] (setting [5]) it was greater than 38.6. The CC50 was greater than 1000 nM in the data set on PG-4 cells (assay SOW104-11-01), greater than 100000 nM with PG-4 cells (assay SOW104-11-02) and greater than 100000 nM with PG-4 cells (setting [5]). Besides, in the data set on XMRV, the EC90 (as a rule, the concentration needed for an effect of 90%) was 17400 ± 9000 nM. Also, the concentration for half-maximal inhibition (IC50) – broadly, the concentration that gives 50% inhibition – in the data set with LNCaP cells was greater than 100000 nM.
Regarding `Cc1cn([C@H]2C[C@H](N=[N+]=[N-])[C@@H](CO)O2)c(=O)[nH]c1=O` [AZT, 3′-azido-2′,3′-dideoxythymidine], the EC50 in data set [1] (setting [6]) is 800 nM; in data set [1] (setting [7]), 70 nM; in data set [1] (setting [8]), 600 nM; in the data set on XMRV (144 h), 8.1 ± 11 nM. Moreover, it took 55 ± 51 nM to reach the 90% level in the data set on XMRV (144 h) (EC90). Also, the IC50 in data set [2] is greater than 100000 nM.
Take `CCCCCCCCCCCCCCCCOCCCOP(=O)(O)CO[C@H](C)Cn1cnc2c(N)ncnc21` [CMX157, 3-(hexadecyloxy)propyl hydrogen ((R)-1-(6-amino-9H-purin 9-yl)propan-2-yloxy)methylphosphonate]: the “stability in words, free acid versus salts” value in data set [3] is on record as “relatively unstable”. In addition, in data set [1] (XMRV in vitro, versus AZT), the “EC50 lower than AZT” value was “approximately 20 fold”. In addition, the “EC50 lower than TFV” value in data set [1] (XMRV in vitro, versus TFV) was roughly 800 fold. In addition, the “Therapeutic Index (TC50/EC50)” value is 10.0 in data set [1] (assay SOW104-11-01), greater than 333.0 in data set [1] (assay SOW104-11-02) and 97.8 in data set [1] (setting [5]). For the same molecule, the EC50 was found to be 40 nM in data set [1] (setting [6]), 3 nM in data set [1] (setting [7]), 60 nM in data set [1] (setting [8]) and 3.1 ± 2.1 nM with XMRV (144 h). Moreover, the CC50 in data set [4] (assay SOW104-11-01, read-out: PG-4 TC50) is 400 nM; in data set [4] (assay SOW104-11-02, read-out: PG-4 TC50), greater than 1000 nM; in data set [4] (third determination listed in Table 3, run not given, read-out: PG-4 TC50), 5900 nM. In addition, the 90% effect level in the data set with XMRV (144 h) (EC90) was put at 37 ± 16 nM. For the same molecule, the IC50 in data set [2] (setting [9]) was greater than 100000 nM.
As for `CC(C)(C)NC(=O)[C@@H]1CN(Cc2cccnc2)CCN1C[C@@H](O)C[C@@H](Cc1ccccc1)C(=O)N[C@H]1c2ccccc2C[C@H]1O` [IDV (Indinavir)], the “Therapeutic Index (TC50/EC50)” value in data set [1] (assay SOW104-11-02) turned out to be 2.7. Moreover, the EC50 in data set [1] (setting [7]) worked out at 800 nM. Besides, the CC50 in data set [4] (PG-4 TC50) stood at 2200 nM.
`CC(C)OC(=O)OCOP(=O)(CO[C@H](C)Cn1cnc2c(N)ncnc21)OCOC(=O)OC(C)C` [Tenofovir disoproxil fumarate, 2,4,6,8-Tetraoxa-5-phosphanonanedioic acid, 5-[[(1R)-2-(6-amino-9H-purin-9-yl)-1-methylethoxy]methyl]-, bis(1-methylethyl)ester, 5-oxide, (2E)-2-butenedioate (1:1)]: in the data set with XMRV (144 h), the EC50 amounted to 29 ± 26 nM and the 90% effect concentration (EC90) amounted to 210 ± 150 nM. Also, the midpoint of inhibition in data set [2], the IC50, lay at 87400 nM.
With `Cc1nnc(C(=O)NC(C)(C)c2nc(C(=O)NCc3ccc(F)cc3)c(O)c(=O)n2C)o1` [Raltegravir], in the data set on XMRV (144 h), the EC50 came to 0.54 ± 0.57 nM and the EC90 came out at 3.2 ± 2.9 nM. Besides, the IC50 in data set [2] (setting [9]) was greater than 100000 nM.
With `NC(=O)c1ncn([C@@H]2O[C@H](CO)[C@@H](O)[C@H]2O)n1` [Ribavirin, 1-β-D-ribofuranosyl-1,2,4-triazole-3-carboxamide], the “Therapeutic Index (TC50/EC50)” value in data set [1] (assay SOW104-11-01) is 6.5. Besides, the EC50 in data set [1] (unidentified retrovirus, 22Rv1, in Mus musculus, read-out: PG-4/XMRV EC50, Ribavirin in μg/mL, control of SOW104-11-01) was 10.1 µg/mL. Moreover, the “PG-4 TC50” value in the data set with PG-4 cells (cat) is 65.2 µg/mL.
